This is an account of results in ChEMBL document CHEMBL3714712, “Thieno [2,3-c]pyrazoles for use as potassium channel inhibitors” (2013).

The structures appear in SMILES notation.

A word on the IC50: it is the concentration that inhibits the measured activity by half.

In the test the target is T1, Kir3.1/Kir3.4 (Rattus norvegicus, UniProt P48548+P63251).
T1 sequence (P63251 whole entry): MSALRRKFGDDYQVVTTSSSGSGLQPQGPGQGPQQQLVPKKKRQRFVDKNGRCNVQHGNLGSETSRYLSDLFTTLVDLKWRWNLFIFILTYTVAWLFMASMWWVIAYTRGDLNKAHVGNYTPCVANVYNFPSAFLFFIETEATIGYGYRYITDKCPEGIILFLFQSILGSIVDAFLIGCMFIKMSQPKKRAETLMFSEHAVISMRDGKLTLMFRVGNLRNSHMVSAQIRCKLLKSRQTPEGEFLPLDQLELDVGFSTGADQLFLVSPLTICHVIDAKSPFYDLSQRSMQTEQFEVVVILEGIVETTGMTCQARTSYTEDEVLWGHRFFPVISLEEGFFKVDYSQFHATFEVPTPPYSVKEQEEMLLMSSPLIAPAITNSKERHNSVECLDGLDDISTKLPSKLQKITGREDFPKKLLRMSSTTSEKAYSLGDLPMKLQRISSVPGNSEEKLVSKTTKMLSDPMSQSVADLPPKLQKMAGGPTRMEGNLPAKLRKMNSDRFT
T1 sequence (P48548 whole entry): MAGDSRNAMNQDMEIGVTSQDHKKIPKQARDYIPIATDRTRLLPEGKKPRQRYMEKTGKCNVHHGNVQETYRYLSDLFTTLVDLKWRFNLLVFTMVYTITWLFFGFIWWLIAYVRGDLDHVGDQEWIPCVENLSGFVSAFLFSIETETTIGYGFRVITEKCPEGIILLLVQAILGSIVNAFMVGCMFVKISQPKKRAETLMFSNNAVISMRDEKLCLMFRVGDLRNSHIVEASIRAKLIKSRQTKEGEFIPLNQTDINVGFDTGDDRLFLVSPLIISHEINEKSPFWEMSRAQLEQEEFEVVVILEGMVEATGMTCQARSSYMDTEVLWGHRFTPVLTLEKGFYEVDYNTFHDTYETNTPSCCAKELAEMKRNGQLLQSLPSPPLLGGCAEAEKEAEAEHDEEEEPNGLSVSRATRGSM
The test can be described thus: Inhibition of rat Kir3.1/Kir3.4 expressed in HEK293 cells assessed as reduction in depolarizing voltage step-induced recombinant G-protein activated inward rectifier current by whole cell patch clamp assay. In kind it is cell-based. Background: Patch clamp records ionic current or voltage across a cell membrane.
On to `CN(C)C(=O)c1sc2[nH]nc(N3CCC(COCCN4CCCC4)CC3)c2c1-c1ccccc1`, for which the IC50 turned out to be 500 nM.
In the case of `Cn1nc(N2CCC(COCCN3CCCC3)CC2)c2c(-c3ccccc3)csc21`, the IC50 is under 500 nM.
As to `CC(=O)n1nc(N2C3CCC2CC(OCCN2CCCC2)C3)c2c(-c3ccccc3)csc21` (stereo not given), the IC50 is under 500 nM.
For `c1ccc(-c2csc3[nH]nc(N4C5CCC4CC(N4CCC4)C5)c23)cc1` (stereo not given), the IC50 is 500 nM.
Then `c1ccc(-c2csc3[nH]nc(N4C5CCC4CC(OCCN4CCCC4)C5)c23)cc1` (stereo not given), with under 500 nM.
The same measure for `CC(C)NC1CC2CCC(C1)N2c1n[nH]c2scc(-c3ccccc3)c12` (stereo not given): 500 nM; for `CS(=O)(=O)n1nc(N2CCC(COCCN3CCCC3)CC2)c2c(-c3ccccc3)csc21`: under 500 nM; for `N#Cc1sc2[nH]nc(N3CCC(COCCN4CCCC4)CC3)c2c1-c1ccccc1`: under 500 nM.
The same measure for `CN(C)C(=O)c1sc2c(c(N3CCC(COCCN4CCCC4)CC3)nn2C)c1-c1ccccc1`: 500 nM.
Consider `CC(=O)n1nc(N2CCCC(COCCN3CCCC3)C2)c2c(-c3ccccc3)csc21` (stereo not given), for which the IC50 is under 500 nM.
For the molecule `c1ccc(-c2csc3[nH]nc(N4C5CCC4CC(NC4CCC4)C5)c23)cc1` (stereo not given), the IC50 is under 500 nM.
For `Fc1ccc(-c2csc3[nH]nc(N4CC5CC4CC5OCCN4CCCC4)c23)cc1` (stereo not given), the IC50 is under 500 nM.
With `CC(=O)n1nc(N2CC3CC2CC3OCCN2CCCC2)c2c(-c3ccc(F)cc3)csc21` (stereo not given), the IC50 is under 500 nM.
On to `CC(=O)n1nc(N2CCC(COCCN3CCCC3)C2)c2c(-c3ccccc3)csc21` (stereo not given), for which the IC50 is under 500 nM.
Then `c1ccc(-c2csc3[nH]nc(N4C5CCC4CC(COCCN4CCCC4)C5)c23)cc1` (stereo not given), with under 500 nM; and `CC(=O)n1nc(N2CCC(COCCN3CCCC3)CC2)c2c(-c3ccccc3)csc21`, with under 500 nM; and `c1ccc(-c2csc3[nH]nc(N4CCC(COCCN5CCCC5)CC4)c23)cc1`, with under 500 nM.
Then `c1ccc(-c2csc3[nH]nc(N4CC5CC4CC5OCCN4CCCC4)c23)cc1` (stereo not given), with under 500 nM; and `CC(C)NC(=O)c1sc2[nH]nc(N3CCC(COCCN4CCCC4)CC3)c2c1-c1ccccc1`, with under 500 nM; and `c1ccc(-c2csc3[nH]nc(N4CCC(COCCN5CCCC5)C4)c23)cc1` (stereo not given), with under 500 nM.
As for `Brc1sc2[nH]nc(N3CC4CC3CC4OCCN3CCCC3)c2c1-c1ccccc1` (stereo not given), the IC50 is under 500 nM.
For `c1ccc(-c2csc3[nH]nc(N4CCCC(COCCN5CCCC5)C4)c23)cc1` (stereo not given), the IC50 was under 500 nM.
The same measure for `CC(=O)n1nc(N2CC3CC2CC3OCCN2CCCC2)c2c(-c3ccccc3)csc21` (stereo not given): under 500 nM.
The same measure for `CNC(=O)c1sc2[nH]nc(N3CCC(COCCN4CCCC4)CC3)c2c1-c1ccccc1`: under 500 nM; for `CS(=O)(=O)n1nc(N2CC3CC2CC3OCCN2CCCC2)c2c(-c3ccc(F)cc3)csc21` (stereo not given): under 500 nM.
